In patent EP4603105A1, “PHARMACEUTICAL COMPOSITION CONTAINING CYCLIC COMPOUND HAVING SELECTIVE KRAS INHIBITORY EFFECT AGAINST HRAS AND NRAS” (CHUGAI SEIYAKU KABUSHIKI KAISHA, priority 2022, dated 2024):
Where a SMILES comes first, the peptide text is derived from it. Bridges are numbered along the chain shown (N, C = ends). [ ]: non-standard residue; d: D form. The star is where a group is joined. hPhe(3-Cl-4-CF3) = N[C@@H](CCc1ccc(C(F)(F)F)c(Cl)c1)C(=O)O; NPrPhe(4-CF3) = CCCN[C@@H](Cc1ccc(C(F)(F)F)cc1)C(=O)O; NMeGly(cPent) = CN[C@H](C(=O)O)C1CCCC1; NMeD = CN[C@@H](CC(=O)O)C(=O)O; NMeL = CN[C@@H](CC(C)C)C(=O)O; Pip = O=C(O)[C@@H]1CCCCN1; Morpholide = C1CN(*)CCO1; NMeA = CN[C@@H](C)C(=O)O; Ac5c = NC1(C(=O)O)CCCC1; Aze = O=C(O)[C@@H]1CCN1; Sar = CNCC(=O)O

Columns and labels:
HRAS wild-type protein = HRAS wild-type protein (Homo sapiens, UniProt P01112); experiment: Binding to HRAS by surface plasmon resonance (SPR), KD and KD ratio to KRAS
Chain of HRAS wild-type protein (P01112 whole entry): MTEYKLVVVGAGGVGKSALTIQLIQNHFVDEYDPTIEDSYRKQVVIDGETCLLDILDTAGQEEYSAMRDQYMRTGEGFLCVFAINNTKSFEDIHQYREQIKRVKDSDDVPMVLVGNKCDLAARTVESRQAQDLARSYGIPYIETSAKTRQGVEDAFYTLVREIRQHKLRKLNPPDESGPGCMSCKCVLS
Procedure, shortened: (§1)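 GDP-loaded biotinylated Avi-tag RAS proteins (E. coli-expressed) captured on a Biotin CAPture chip at ~100–300 RU; single-cycle kinetics at 30°C, 100 µL/min, 75 s injections of rising compound concentrations. HBS pH 7.4 running buffer with 1 mM DTT, 10 mM MgCl2, 10 µM GDP, 4% DMSO. KD from 1:1 binding fit.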

[1] = test system: human lung cancer strain NCI-H441; format: cell-based
Procedure, shortened: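 Readout: […] after the ATP-based reagent. Compound: serial dilutions in dimethyl sulfoxide.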

[2] = target: GDP-bound NRAS wild-type protein (Homo sapiens, UniProt P01111); experiment: Binding to NRAS by surface plasmon resonance (SPR), KD and KD ratio to KRAS
Chain of GDP-bound NRAS wild-type protein (P01111 whole entry): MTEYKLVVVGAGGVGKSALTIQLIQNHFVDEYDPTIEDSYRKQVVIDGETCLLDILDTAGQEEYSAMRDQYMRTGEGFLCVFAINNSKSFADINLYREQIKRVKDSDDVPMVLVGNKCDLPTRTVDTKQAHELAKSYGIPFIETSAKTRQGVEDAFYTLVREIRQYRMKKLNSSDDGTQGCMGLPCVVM
Procedure, shortened: as §1

[3] = ratio of the KD value with respect to HRAS wild-type protein to the KD value with respect to KRAS
[4] = ratio of the KD value with respect to GDP-bound NRAS wild-type protein to the KD value with respect to KRAS
[5] = ratio of KD for HRAS wild-type protein to KD for KRAS
[6] = ratio of KD for GDP-bound NRAS wild-type protein to KD for KRAS

| IC50 [1] | Compound | HRAS /KRAS (HRAS wild-type protein; [3]) | NRAS /KRAS [2, 4] | HRAS /KRAS (HRAS wild-type protein; [5]) | NRAS /KRAS [2, 6] | HRAS /KRAS (HRAS wild-type protein; ratio of KD value for HRAS wild-type protein to KD value for KRAS (SPR)) | NRAS /KRAS ([2]; ratio of KD value for GDP-bound NRAS wild-type protein to KD value for KRAS (SPR)) |
| --- | --- | --- | --- | --- | --- | --- | --- |
| 26.3 nM | CC[C@H](C)[C@@H]1NC(=O)[C@H](CC(C)C)N(C)C(=O)C[C@@H](C(=O)N2CCOCC2)N(C)C(=O)[C@H](C2CCCC2)N(C)C(=O)C2(CCCC2)NC(=O)[C@@H]2CCCN2C(=O)[C@H](CCc2ccc(C(F)(F)F)c(Cl)c2)NC(=O)CN(C)C(=O)[C@H](Cc2ccc(C(F)(F)F)cc2)N2CC/C=C\C[C@@H](C2=O)N(C)C(=O)CN(C)C1=O [PP0463] | A (a compound having 10 or more and less than 20 is denoted as A) | A (a compound having 10 or more and less than 20 is denoted as A) |  |  |  |  |
| 29 nM | CCCN1C(=O)[C@@H]2CCN2C(=O)[C@H](C)N(C)C(=O)[C@H]([C@@H](C)CC)NC(=O)[C@H](CC(C)C)N(C)C(=O)C[C@@H](C(=O)N2CCOCC2)N(C)C(=O)[C@H](C2CCCC2)N(C)C(=O)C2(CCCC2)NC(=O)[C@@H]2CCCCN2C(=O)[C@H](CCc2ccc(C(F)(F)F)c(Cl)c2)NC(=O)CN(C)C(=O)[C@@H]1Cc1ccc(C(F)(F)F)cc1 [PP0284] ([NMeL]I[NMeA][Aze][NPrPhe(4-CF3)][Sar][hPhe(3-Cl-4-CF3)][Pip][Ac5c][NMeGly(cPent)][NMeD]-Morpholide; lactam N-11) |  |  | B (a compound having 3 or more and less than 10 is denoted as B) | C (A compound having a KD ratio of 0.1 or more and less than 3 is denoted as C) |  |  |

The next lines start with the compound.

| Compound | IC50 [1] | HRAS /KRAS (HRAS wild-type protein; [3]) | NRAS /KRAS [2, 4] | HRAS /KRAS (HRAS wild-type protein; [5]) | NRAS /KRAS [2, 6] | HRAS /KRAS (HRAS wild-type protein; ratio of KD value for HRAS wild-type protein to KD value for KRAS (SPR)) | NRAS /KRAS ([2]; ratio of KD value for GDP-bound NRAS wild-type protein to KD value for KRAS (SPR)) |
| --- | --- | --- | --- | --- | --- | --- | --- |
| CCO[C@@H]1C[C@H]2C(=O)NC3(CC(C)(C)C3)C(=O)N(C)[C@@H](C(CC)CC)C(=O)N(C)[C@H](C(=O)N3CCCC3)CC(=O)N(C)[C@@H](C)C(=O)N[C@@H]([C@@H](C)CC)C(=O)N(C)CC(=O)N(C)[C@H]3C/C=C\CCN(C3=O)[C@@H](Cc3ccc(C(F)(F)F)cc3)C(=O)N(C)CC(=O)N[C@@H](CCc3ccc(C(F)(F)F)c(OC)c3)C(=O)N2C1 [PP2163] | 18.2 nM | A (a compound having 10 or more and less than 20 is denoted as A) | A (a compound having 10 or more and less than 20 is denoted as A) |  |  |  |  |
| CCO[C@@H]1C[C@H]2C(=O)NC3(CCC3)C(=O)N(C)[C@@H](C3CCCC3)C(=O)N(C)[C@H](C(=O)N3CCOCC3)CC(=O)N(C)[C@@H](CC(C)C)C(=O)N[C@@H]([C@@H](C)CC)C(=O)N(C)CC(=O)N(C)[C@H]3CC=CCN(C3=O)[C@@H](Cc3ccc(C(F)(F)F)cc3)C(=O)N(C)CC(=O)N[C@@H](CCc3cc(F)c(C(F)(F)F)c(F)c3)C(=O)N2C1 [PP0832] | 21.5 nM |  |  | C (A compound having a KD ratio of 0.1 or more and less than 3 is denoted as C) | C (A compound having a KD ratio of 0.1 or more and less than 3 is denoted as C) |  |  |
| CCO[C@@H]1C[C@H]2C(=O)NC3(CC(C)(C)C3)C(=O)N(C)[C@@H](C3CCCC3)C(=O)N(CC)[C@H](C(=O)N(C)C)CC(=O)N(C)[C@@H](CC)C(=O)N[C@@H]([C@@H](C)CC)C(=O)N(C)CC(=O)N(C)[C@H]3C/C=C\CCN(C3=O)[C@@H](Cc3ccc(C(F)(F)F)cc3)C(=O)N(C)CC(=O)N[C@@H](CCc3cc(F)c(C(F)(F)F)c(F)c3)C(=O)N2C1 [PP1768] | 4.9 nM |  |  |  |  | A (a compound having 10 or more and less than 20 is denoted as A) | A (a compound having 10 or more and less than 20 is denoted as A) |
| CCC[C@H]1C(=O)N[C@@H](C2CCCC2)C(=O)N(C)CC(=O)N(C)[C@H]2C/C=C\CCN(C2=O)[C@@H](Cc2ccc(C)cc2)C(=O)N(C)CC(=O)N[C@@H](CCc2cc(F)c(C(F)(F)F)c(F)c2)C(=O)N2C[C@H](OCC)C[C@H]2C(=O)NC2(CC(C)(C)C2)C(=O)N(C)[C@@H](CC(C)(C)C)C(=O)N(C)[C@H](C(=O)N(C)C)CC(=O)N1C [PP2989] | 6.5 nM |  |  | A (a compound having 10 or more and less than 20 is denoted as A) | AA (a compound having 20 or more is denoted as AA) |  |  |
